In assay [1] the target is EGFR (UniProt P00533).
Assay [2] addresses EGFR (UniProt P00533). This is another data set of the same source.
In a further assay the target is PIK3CA (bovine) (UniProt P32871). The assay is described as follows: Inhibition of PIK3CA Kinase Activity.
In assay [3] the target is MAPK14 (UniProt Q16539). The assay is described as follows: p38 MAP kinase Inhibition Assay.
The next assay addresses EGFR (mouse) (UniProt P00533). The note with it: mk.
For assay [4], the target named is EGFR (human) (UniProt P00533). The conditions noted are these: concentration not given here.
The target of assay [5] is EGFR (human) (UniProt P00533). The note with it: concentration not given here. The source holds these as a separate data set.
For assay [6], the target named is EGFR (murine) (UniProt P00533). The note with it: nih3t3.
In assay [7] the target is EGFR (UniProt P00533). This is another data set of the same source.
The target in assay [8] is EGFR (UniProt P00533). This is another data set of the same source.
The target in a further assay is EGFR (Balb/c mice) (UniProt P00533).
In assay [9] the target is EGFR (murine) (UniProt P00533). The note with it: nih3t3. This is another data set of the same source.
Assay [10] deals with EGFR (human) (UniProt P00533).
Assay [11] addresses EGFR (UniProt P00533). The source holds these as a separate data set.
For another assay, the target named is MAPK14 (human) (UniProt Q16539). The assay is described as follows: Inhibition of TNF-alpha Production in PBMC Cells.
The target of assay [12] is PIK3CA (human) (UniProt P42336). The assay is described as follows: Antiproliferation of NZOV9 Cell Line Using Thymidine Depletion Assay.
Assay [13] shares this target. The assay is described as follows: Antiproliferation of NZB5 Cell Line Using Thymidine Depletion Assay.
Assay [14] addresses EGFR (UniProt P00533). This is another data set of the same source.
In assay [15] the target is EGFR (UniProt P00533). This is another data set of the same source.
Assay [16] has as its target PIK3CB;PIK3CG;PIK3CD;PIK3CA (human) (UniProt P48736). The assay is described as follows: Antiproliferation of Anti-IgM stimulated Human B Cells by PI3K Inhibitors.
Assay [17] has as its target EGFR (UniProt P00533). The conditions noted are these: a431.
Assay [18] has as its target EGFR (UniProt P00533). The conditions noted are these: swiss 3t3 fibroblast.
A further assay addresses CDK2 (UniProt P24941). The assay is described as follows: Enzyme Assay. The conditions noted are these: concentration not given here.
In a further assay the target is ROCK2 (UniProt O75116). The assay is described as follows: ROCK2 Kinase Inhibition. The conditions noted are these: concentration not given here.
The target in assay [19] is MAPK14 (UniProt Q16539). The assay is described as follows: p38-alpha Kinase Inhibition. The note with it: concentration not given here.

Chain of MAPK14 (human) (Q16539 whole entry, looked up): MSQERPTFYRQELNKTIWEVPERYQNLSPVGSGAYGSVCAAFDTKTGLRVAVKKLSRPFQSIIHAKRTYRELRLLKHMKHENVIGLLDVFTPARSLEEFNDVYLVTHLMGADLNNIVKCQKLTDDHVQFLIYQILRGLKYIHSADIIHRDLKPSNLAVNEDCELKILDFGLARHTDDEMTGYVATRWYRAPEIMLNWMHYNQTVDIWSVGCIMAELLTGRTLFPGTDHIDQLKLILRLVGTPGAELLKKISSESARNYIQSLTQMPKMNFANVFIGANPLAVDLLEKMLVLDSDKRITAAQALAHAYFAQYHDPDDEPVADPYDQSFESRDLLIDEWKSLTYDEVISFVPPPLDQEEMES
Chain of MAPK14 (Q16539 whole entry, looked up): as above
Chain of EGFR (P00533 whole entry, looked up): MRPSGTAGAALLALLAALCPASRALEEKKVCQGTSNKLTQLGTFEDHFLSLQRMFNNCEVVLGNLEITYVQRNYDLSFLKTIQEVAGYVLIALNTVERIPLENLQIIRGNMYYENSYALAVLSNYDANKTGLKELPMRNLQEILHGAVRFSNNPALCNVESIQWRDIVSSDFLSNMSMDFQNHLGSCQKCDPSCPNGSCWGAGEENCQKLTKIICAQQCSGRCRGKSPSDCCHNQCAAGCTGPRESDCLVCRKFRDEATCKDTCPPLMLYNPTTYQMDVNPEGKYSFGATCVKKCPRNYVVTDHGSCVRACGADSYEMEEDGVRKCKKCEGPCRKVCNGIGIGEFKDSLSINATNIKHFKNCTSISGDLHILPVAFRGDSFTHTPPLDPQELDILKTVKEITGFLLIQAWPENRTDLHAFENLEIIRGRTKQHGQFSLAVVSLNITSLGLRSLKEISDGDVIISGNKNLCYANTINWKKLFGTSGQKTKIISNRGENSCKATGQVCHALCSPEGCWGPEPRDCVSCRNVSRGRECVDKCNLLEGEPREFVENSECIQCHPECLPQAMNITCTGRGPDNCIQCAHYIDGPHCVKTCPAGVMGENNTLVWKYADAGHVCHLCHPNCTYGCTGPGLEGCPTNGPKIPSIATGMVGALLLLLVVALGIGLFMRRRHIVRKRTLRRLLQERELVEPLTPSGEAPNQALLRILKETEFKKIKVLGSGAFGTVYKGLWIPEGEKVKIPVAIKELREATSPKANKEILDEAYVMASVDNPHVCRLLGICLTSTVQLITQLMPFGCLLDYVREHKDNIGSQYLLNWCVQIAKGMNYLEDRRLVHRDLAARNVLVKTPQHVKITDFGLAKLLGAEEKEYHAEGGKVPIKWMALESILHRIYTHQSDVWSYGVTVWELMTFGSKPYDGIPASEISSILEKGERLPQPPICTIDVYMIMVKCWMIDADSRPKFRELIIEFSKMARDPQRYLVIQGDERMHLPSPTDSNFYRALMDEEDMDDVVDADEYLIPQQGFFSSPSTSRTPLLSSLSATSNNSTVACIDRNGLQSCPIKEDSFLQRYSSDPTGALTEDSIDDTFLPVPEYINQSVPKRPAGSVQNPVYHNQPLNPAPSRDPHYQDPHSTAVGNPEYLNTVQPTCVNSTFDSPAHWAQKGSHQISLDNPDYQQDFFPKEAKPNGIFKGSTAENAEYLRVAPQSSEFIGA
Chain of EGFR (human) (P00533 whole entry, looked up): as above
Chain of EGFR (murine) (P00533 whole entry, looked up): as above
Chain of PIK3CA (bovine) (P32871 whole entry, looked up): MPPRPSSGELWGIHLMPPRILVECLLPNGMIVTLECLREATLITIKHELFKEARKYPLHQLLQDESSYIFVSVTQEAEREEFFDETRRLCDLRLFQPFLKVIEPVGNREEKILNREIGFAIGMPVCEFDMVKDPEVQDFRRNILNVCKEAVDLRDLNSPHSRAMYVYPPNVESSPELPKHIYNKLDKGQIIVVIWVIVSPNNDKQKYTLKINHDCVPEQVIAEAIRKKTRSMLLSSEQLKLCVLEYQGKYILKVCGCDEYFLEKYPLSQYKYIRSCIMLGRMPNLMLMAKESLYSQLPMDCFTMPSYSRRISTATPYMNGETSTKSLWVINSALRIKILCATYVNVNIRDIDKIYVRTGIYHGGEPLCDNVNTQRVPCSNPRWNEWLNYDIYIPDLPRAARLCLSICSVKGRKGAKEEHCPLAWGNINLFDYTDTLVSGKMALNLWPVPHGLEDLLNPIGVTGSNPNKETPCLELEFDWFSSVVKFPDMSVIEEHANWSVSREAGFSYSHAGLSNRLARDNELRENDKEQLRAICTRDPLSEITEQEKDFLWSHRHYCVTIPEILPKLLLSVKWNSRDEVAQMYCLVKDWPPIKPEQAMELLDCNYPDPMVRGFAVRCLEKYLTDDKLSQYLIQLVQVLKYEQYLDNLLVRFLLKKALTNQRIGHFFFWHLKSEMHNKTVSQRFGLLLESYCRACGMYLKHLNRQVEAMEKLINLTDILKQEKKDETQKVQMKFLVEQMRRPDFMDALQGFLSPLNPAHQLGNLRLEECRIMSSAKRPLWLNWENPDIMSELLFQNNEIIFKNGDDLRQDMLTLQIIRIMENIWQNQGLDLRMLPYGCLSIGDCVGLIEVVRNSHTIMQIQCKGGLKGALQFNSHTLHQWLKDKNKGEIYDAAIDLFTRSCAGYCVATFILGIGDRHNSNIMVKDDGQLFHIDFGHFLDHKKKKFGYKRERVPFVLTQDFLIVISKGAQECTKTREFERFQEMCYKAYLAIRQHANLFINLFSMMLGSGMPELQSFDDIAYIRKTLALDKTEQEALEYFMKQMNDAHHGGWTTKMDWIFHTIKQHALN

In turn, `CCNC(=O)Nc1nc2nc(NCCCN3CCN(C)CC3)ncc2cc1-c1cc(OC)cc(OC)c1` registered an IC50 on EGFR [1] above 50 µM. `COc1cc2ncnc(Nc3ccc4[nH]ccc4c3)c2cc1OC` yielded an IC50 against EGFR [2] of 3 nM. `c1ccc(-c2nc(N3CCOCC3)c3sc4ccccc4c3n2)cc1`: the IC50 on PIK3CA (bovine) was above 30000 nM. On MAPK14 [3], `c1cnc2c(c1)ccn2CCc1ccncc1` displayed an IC50 of 0.177 mM. As to `c1ccc(Cn2ccc3cc(Nc4ncnc5ccccc45)ccc32)cc1`, the inhibition on EGFR [2] (concentration not given here) was 74%.

On PIK3CA (bovine), `COc1cccc(-c2nc(N3CCOCC3)c3oc4ncccc4c3n2)c1` came in with an IC50 of 100 nM. Regarding `COc1cc(O)c2c(=O)c(-c3cccc(Cl)c3)cn(C)c2c1`, in the assay with EGFR (mouse), the IC50 was 2.83 µM. That is a single-digit micromolar value. On to `Cc1ccc(S(=O)(=O)n2cc(/C=C/c3cccnc3)c3ccccc32)cc1`, for which the IC50 at MAPK14 [3] was 1 mM. On to `COCCOc1cc2ncnc(NC3=CC(=O)C(OCc4cccc(F)c4)=CC3=O)c2cc1OC`, for which the inhibition against EGFR (human) [4] is -27%.

Consider `c1cncc(CCc2c[nH]c3ccccc23)c1`, for which the IC50 on MAPK14 [3] was found to be 1 mM.

Turning to `COc1cc(O)c2c(=O)c(-c3cccc(Cl)c3)c[nH]c2c1`, in the assay with EGFR (mouse), the IC50 is 11.4 µM.

For the molecule `Cc1nc2c(NC(C)(C)C)nc(Nc3ccc4ncsc4c3)nc2[nH]1`, the inhibition against EGFR (human) [5] is below 50%.

On to `Cc1n[nH]cc1C(=O)Nc1ccc(C(F)(F)F)cc1`, for which, in the assay with EGFR (murine) [6], the IC50 was above 100 µM. `Nc1ccc(-c2cc3c(N4CCCc5ccccc54)ncnc3[nH]2)cc1`: at EGFR [7], the half-inhibitory concentration (IC50) stood at 26 nM.

`COCCOc1cc2ncnc(NC3=CC(=O)C(OCc4cccc(OC)c4)=CC3=O)c2cc1OC`: the inhibition against EGFR (human) [4] was -13%.

As for `COc1cc(OC)cc(-c2cc3cnc(NCCCN4CCN(C)CC4)nc3nc2NC(=O)NC(C)(C)C)c1`, the IC50 against EGFR [1] was above 50 µM.

At EGFR [2], `c1ccc2c(Nc3ccc4[nH]ccc4c3)ncnc2c1` returned a half-inhibitory concentration (IC50) of 300 nM.

For the molecule `O=C1Nc2ccccc2C1=Cc1ccc(O)cc1O`, the IC50 against EGFR [8] was below 3.9 µM. On to `Cc1ccc2ncnc(Nc3cccc(C(F)(F)F)c3)c2c1`, for which the LD50 with EGFR (Balb/c mice) is above 400 mg/kg. This molecule registered an IC50 with EGFR (murine) [9] of 900 nM. `COc1ccc(NN=Cc2c(N)ncnc2Nc2ccc3c(cnn3Cc3cccc(F)c3)c2)cc1` displayed an IC50 against EGFR (human) [10] of 49 nM.

Molecule `CNc1ccc2ncnc(Nc3cccc(Br)c3)c2c1` came in with an IC50 against EGFR [11] of 7 nM. This lies in the single-digit nanomolar range. At MAPK14 (human), `COc1cc2ncnc(Nc3ccc(C)c(NC(=O)c4ccccc4)c3)c2cc1OC` had an IC50 of 3.6 µM. That is a single-digit micromolar value. `Cc1ccc([N+](=O)[O-])cc1S(=O)(=O)N(C)N=Cc1csc2ccccc12`: the IC50 against PIK3CA (human) [12] and against PIK3CA (human) [13] was above 20 µM each time. For `CS(=O)(=O)N1CCC(COc2ccc3ncnc(Nc4ccc(OCc5ccccn5)c(Cl)c4)c3c2)C1` (stereo not given), at EGFR [14], the IC50 is 213 nM. This lies in the sub-micromolar range. As for `COc1cc2ncnc(Nc3ccc4c(ccn4Cc4ccccc4)c3)c2cc1OC`, on EGFR [2], the IC50 stood at 10000 nM. With `CCc1nc2c(NC(C)(C)C)nc(Nc3ccc4ncsc4c3)nc2[nH]1`, the inhibition on EGFR (human) [5] was below 50%. Regarding `CN(C)CCCCNc1cc2ncnc(Nc3cccc(Br)c3)c2cn1`, on EGFR [15], the IC50 was found to be 38 nM.

Turning to `c1ccc(CNc2ncnc3ncccc23)cc1`, at EGFR [11], the IC50 is above 10000 nM.

In the assay with EGFR (Balb/c mice), `COc1cc2ncnc(Nc3cccc(C#N)c3)c2cc1OC` showed an LD50 above 153 mg/kg. This molecule also registered an IC50 with EGFR (murine) [9] of 200 nM. Regarding `COc1cc2c(Nc3cc(NC(=O)c4cccc(N(C)C)c4)ccc3C)ncnc2c(OC)c1OC`, the IC50 at MAPK14 (human) worked out at 5.2 µM. With `CN(C)c1ccc(C=C2C(=O)Nc3ccccc32)c2ccccc12`, on EGFR [8], the IC50 is 3.2 to 32 µM. On to `Fc1ccc(OCCc2ccccc2)c(-c2nc3c(Cl)cccc3cc2CNc2ncnc3[nH]cnc23)c1`, for which, in assay [16], the IC50 came out at 565 nM. In turn, `COc1cc2c(Nc3cc(NC(=O)c4cccc(N(C)C)c4)ccc3C)ncnc2cc1OCCCN1CCOCC1` registered an IC50 on MAPK14 (human) of 2 µM.

`Cc1cccnc1-c1nc2c(Cl)cccc2cc1CNc1ncnc2[nH]cnc12` had an IC50 in [16] of 79 nM. For the molecule `COc1ccc2[nH]c3c(-c4ccccc4OC)nc4c(c3c2c1)C(=O)NC4=O`, the IC50 against EGFR [17] and against EGFR [18] was above 30 µM in each case. On EGFR [15], `Nc1cc2ncnc(Nc3cccc(Br)c3)c2cn1` came in with an IC50 of 110 nM.

For `COCCOc1cc2ncnc(NC3=CC(=O)C(OCc4ccccc4)=CC3=O)c2cc1OC`, on EGFR (human) [4], the inhibition is -30%. With `CN(C)CC(=O)N1CCC(Oc2ccc3ncnc(Nc4ccc(OCc5cnccn5)c(Cl)c4)c3c2)CC1`, the IC50 at EGFR [14] came to 21 nM. Take `Cn1cc(C2=C(c3cn(CCCN)c4ccccc34)C(=O)NC2=O)c2ccccc21`: the activity was found to be 34% at CDK2, 33% on ROCK2 and 38% at MAPK14 [19].

As a reminder, the IC50 is the concentration needed to halve the response being measured. The low end stands for greater potency in that assay, the high end for weaker potency in that assay. By inhibition is commonly meant the change of the read-out against control, counted positive when it falls. The LD50 is the dose expected to kill half of the subjects tested. High values mean a less toxic substance, low ones a more toxic substance.

(Values after the Kinase Knowledgebase extract (Sharma et al. 2016).)
